By inhibition is commonly meant the relative decrease from the control value, in per cent. The term Ki denotes a dissociation constant, usually derived from enzyme kinetics or from competition with a known ligand.

Experiment [1] has as its target D(1A) dopamine receptor (Homo sapiens) (UniProt P21728). Description: Agonist activity at human recombinant dopamine D1 receptor expressed in CHOK1 cells assessed as stimulation of cAMP accumulation at 100 uM after 30 mins by HTRF assay relative to SKF81297. Type of experiment: functional, cell-based. The settings on record: CHO-K1. A general note: cAMP levels reflect the balance of adenylyl cyclase and phosphodiesterase activity.

The target is the same in experiment [2]. Description: Antagonist activity at human recombinant dopamine D1 receptor expressed in CHOK1 cells assessed as inhibition of agonist-induced cAMP accumulation at 100 uM preincubated for 10 mins prior to agonist addition measured after 30 mins by HTRF assay relative to SCH23390. Type of experiment: functional, cell-based. Conditions: CHO-K1.
Experiment [3] has as its target D(2) dopamine receptor (Homo sapiens) (UniProt P14416). Description: Agonist activity at human recombinant dopamine D2 long receptor expressed in CHOK1 cells coexpressing mitochondrial apoaequorin at 100 uM by luminometric analysis relative to quinpirol. Type of experiment: cell-based. The settings on record: CHO-K1.
For experiment [4] the target is unchanged. Description: Antagonist activity at human recombinant dopamine D2 long receptor expressed in CHOK1 cells coexpressing mitochondrial apoaequorin assessed as inhibition of agonist-induced effect at 50 uM after 15 mins by luminometric analysis relative to haloperidol. The settings on record: CHO-K1. Type of experiment: cell-based.
For experiment [5] the target is unchanged. The experiment is described as follows: Agonist activity at human recombinant dopamine D2 long receptor expressed in CHOK1 cells coexpressing mitochondrial apoaequorin at 8 uM by luminometric analysis relative to quinpirol. Type of experiment: cell-based. The settings on record: CHO-K1.
Experiment [6] concerns the target D(1A) dopamine receptor (Homo sapiens) (UniProt P21728). The experiment is described as follows: Antagonist activity at human recombinant dopamine D1 receptor expressed in CHOK1 cells assessed as inhibition of agonist-induced cAMP accumulation at 8 uM preincubated for 10 mins prior to agonist addition measured after 30 mins by HTRF assay relative to SCH23390. Conditions: CHO-K1. Type of experiment: functional, cell-based.

Experiment [7] concerns the target D(2) dopamine receptor (Homo sapiens) (UniProt P14416). The experiment is described as follows: Antagonist activity at human recombinant dopamine D2 long receptor expressed in CHOK1 cells coexpressing mitochondrial apoaequorin assessed as inhibition of agonist-induced effect at 8 uM after 15 mins by luminometric analysis relative to haloperidol. Type of experiment: cell-based. Conditions: CHO-K1.

Experiment [8] concerns the target D(1A) dopamine receptor (Homo sapiens) (UniProt P21728). Description: Agonist activity at human recombinant dopamine D1 receptor expressed in CHOK1 cells assessed as stimulation of cAMP accumulation at 8 uM after 30 mins by HTRF assay relative to SKF81297. Type of experiment: functional, cell-based. The settings on record: CHO-K1.
For experiment [9], the target named is T1, Prostaglandin G/H synthase 1 (Homo sapiens, UniProt P23219). The experiment is described as follows: Inhibition of COX-1 (unknown origin) using arachidonic acid as substrate assessed as formation of prostanoid products preincubated for 10 mins prior to substrate addition measured after 2 mins by Ellman's method.
T1 sequence (P23219 whole entry): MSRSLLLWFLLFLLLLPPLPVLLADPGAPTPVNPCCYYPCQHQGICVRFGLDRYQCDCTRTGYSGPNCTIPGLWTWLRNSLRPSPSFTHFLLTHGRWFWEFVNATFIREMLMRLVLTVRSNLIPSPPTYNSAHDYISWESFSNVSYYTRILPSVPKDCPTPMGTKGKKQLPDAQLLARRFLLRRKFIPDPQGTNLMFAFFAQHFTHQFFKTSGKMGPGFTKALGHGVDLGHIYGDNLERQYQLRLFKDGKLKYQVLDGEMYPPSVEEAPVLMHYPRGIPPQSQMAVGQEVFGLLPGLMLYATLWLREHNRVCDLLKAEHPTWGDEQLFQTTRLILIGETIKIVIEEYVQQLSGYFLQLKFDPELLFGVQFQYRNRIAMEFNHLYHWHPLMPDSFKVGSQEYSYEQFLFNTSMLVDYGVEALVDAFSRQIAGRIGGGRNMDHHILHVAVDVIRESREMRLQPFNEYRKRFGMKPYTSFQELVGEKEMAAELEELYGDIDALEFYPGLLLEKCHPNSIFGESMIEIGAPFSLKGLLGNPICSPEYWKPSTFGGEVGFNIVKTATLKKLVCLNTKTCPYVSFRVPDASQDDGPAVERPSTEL
In experiment [10] the target is T1, Prostaglandin G/H synthase 1. Description: Inhibition of COX-1 (unknown origin) using arachidonic acid as substrate assessed as formation of prostanoid products at 500 uM preincubated for 10 mins prior to substrate addition measured after 2 mins by Ellman's method relative to control. For orientation: In Ellman's method for cholinesterases, released thiocholine reacts with DTNB.

For experiment [11], the target named is T2, Angiotensin-converting enzyme (Homo sapiens, UniProt P12821). The experiment is described as follows: Inhibition of ACE (unknown origin) assessed as 3-Hydroxybutyril-glycil-glycil-glycine conversion to 3-hydroxybutyric acid after 60 mins by WST assay.
T2 sequence (P12821 whole entry): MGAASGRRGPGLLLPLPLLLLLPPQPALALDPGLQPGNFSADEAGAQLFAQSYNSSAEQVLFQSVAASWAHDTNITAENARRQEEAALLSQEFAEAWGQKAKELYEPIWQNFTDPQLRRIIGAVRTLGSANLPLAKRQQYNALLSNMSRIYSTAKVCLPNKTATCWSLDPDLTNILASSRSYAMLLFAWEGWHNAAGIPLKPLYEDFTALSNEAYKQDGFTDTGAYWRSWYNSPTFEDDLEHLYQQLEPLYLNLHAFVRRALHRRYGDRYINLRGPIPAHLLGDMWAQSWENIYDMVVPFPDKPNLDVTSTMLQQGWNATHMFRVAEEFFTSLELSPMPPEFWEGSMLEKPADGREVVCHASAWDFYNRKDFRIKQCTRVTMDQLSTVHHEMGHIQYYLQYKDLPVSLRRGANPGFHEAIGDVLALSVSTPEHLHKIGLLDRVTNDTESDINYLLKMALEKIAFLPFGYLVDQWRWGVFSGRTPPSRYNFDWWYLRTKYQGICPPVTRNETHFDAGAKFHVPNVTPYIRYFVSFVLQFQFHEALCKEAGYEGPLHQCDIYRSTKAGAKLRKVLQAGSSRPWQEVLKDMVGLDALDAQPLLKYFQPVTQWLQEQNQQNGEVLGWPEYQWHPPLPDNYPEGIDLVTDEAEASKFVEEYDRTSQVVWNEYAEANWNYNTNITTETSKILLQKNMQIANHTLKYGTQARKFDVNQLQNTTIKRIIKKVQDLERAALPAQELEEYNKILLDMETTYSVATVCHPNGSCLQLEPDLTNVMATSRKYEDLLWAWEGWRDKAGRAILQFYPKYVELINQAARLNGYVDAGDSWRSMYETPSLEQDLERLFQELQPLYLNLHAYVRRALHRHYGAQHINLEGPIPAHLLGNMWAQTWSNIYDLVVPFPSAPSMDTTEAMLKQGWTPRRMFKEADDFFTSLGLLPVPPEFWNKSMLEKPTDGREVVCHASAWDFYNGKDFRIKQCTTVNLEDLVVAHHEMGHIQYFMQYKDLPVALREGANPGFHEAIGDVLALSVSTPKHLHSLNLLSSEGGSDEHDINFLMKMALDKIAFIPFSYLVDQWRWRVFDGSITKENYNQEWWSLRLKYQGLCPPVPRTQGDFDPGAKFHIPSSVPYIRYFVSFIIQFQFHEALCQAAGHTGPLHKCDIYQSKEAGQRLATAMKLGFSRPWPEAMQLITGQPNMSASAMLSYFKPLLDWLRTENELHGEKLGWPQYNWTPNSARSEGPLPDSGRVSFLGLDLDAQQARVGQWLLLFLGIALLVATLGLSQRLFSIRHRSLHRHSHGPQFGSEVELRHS
The target of experiment [12] is T2, Angiotensin-converting enzyme. Description: Inhibition of ACE (unknown origin) assessed as 3-Hydroxybutyril-glycil-glycil-glycine conversion to 3-hydroxybutyric acid at 500 uM after 60 mins by WST assay relative to control.
Experiment [13] has the same target. The experiment is described as follows: Inhibition of ACE (unknown origin) assessed as 3-Hydroxybutyril-glycil-glycil-glycine conversion to 3-hydroxybutyric acid at 128 uM after 60 mins by WST assay relative to control.
Experiment [14] addresses T3, Prostaglandin G/H synthase 2 (Homo sapiens, UniProt P35354).
T3 sequence (P35354 whole entry): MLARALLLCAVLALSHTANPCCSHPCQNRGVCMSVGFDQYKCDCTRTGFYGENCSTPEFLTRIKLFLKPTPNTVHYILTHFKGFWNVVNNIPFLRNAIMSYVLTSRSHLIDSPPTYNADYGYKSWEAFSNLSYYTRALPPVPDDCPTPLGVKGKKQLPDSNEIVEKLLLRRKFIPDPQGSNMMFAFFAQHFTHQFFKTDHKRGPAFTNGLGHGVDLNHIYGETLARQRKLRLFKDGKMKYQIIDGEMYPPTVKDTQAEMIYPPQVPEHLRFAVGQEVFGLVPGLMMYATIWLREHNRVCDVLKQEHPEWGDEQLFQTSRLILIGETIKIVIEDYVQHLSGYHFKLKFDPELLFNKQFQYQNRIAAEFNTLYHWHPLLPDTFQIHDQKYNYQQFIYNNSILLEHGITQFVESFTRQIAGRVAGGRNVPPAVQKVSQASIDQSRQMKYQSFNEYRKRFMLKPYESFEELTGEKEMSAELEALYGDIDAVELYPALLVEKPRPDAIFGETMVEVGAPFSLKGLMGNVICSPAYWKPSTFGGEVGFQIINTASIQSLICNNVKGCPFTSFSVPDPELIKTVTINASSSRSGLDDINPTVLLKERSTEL
Description: Inhibition of COX-2 (unknown origin) using arachidonic acid as substrate assessed as formation of prostanoid products preincubated for 10 mins prior to substrate addition measured after 2 mins by Ellman's method.

Sequence of D(2) dopamine receptor (Homo sapiens) (P14416 whole entry): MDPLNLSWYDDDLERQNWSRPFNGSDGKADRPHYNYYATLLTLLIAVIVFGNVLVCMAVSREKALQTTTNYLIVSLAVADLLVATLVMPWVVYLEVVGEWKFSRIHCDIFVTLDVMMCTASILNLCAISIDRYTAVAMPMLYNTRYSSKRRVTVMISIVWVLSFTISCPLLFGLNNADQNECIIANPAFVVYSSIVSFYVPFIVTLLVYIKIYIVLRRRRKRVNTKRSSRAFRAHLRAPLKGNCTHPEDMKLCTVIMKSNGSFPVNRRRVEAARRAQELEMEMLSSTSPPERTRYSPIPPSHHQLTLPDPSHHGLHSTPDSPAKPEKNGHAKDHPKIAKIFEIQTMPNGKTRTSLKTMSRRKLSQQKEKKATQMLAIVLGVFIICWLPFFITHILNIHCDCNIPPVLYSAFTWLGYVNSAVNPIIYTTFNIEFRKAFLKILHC
Sequence of D(1A) dopamine receptor (Homo sapiens) (P21728 whole entry): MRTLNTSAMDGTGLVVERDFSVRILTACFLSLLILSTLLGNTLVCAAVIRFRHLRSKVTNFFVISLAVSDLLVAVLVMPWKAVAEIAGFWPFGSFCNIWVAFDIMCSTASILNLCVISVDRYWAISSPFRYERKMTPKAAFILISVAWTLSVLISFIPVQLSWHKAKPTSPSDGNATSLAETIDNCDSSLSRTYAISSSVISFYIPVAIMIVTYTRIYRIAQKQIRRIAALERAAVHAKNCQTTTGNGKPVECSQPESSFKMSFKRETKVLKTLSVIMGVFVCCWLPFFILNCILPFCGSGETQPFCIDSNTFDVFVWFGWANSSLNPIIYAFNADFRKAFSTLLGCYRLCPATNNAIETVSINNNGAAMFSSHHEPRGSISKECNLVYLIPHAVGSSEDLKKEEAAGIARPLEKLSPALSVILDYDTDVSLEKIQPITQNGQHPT

On to `CCc1cccc2c3c([nH]c12)C(CC)(CC(=O)O)OCC3` (stereo not given), for which the Activity in experiment [1] was -1.9%; in experiment [3], 0.96%. Also, the inhibition in [2] is -1.4%; in experiment [4] it was 13%.

As to `Cc1ccc(-c2cc(C(F)(F)F)nn2-c2ccc(S(N)(=O)=O)cc2)cc1`, the Activity in experiment [5] turned out to be 175%; in [8], 1.8%. The inhibition was 95% in experiment [6] and 96% in experiment [7].

For the compound `C[C@@H]1O[C@@H]1P(=O)(O)O`, the Activity was -1.2% in [1] and 0.09% in experiment [3]. Moreover, the inhibition in [2] is -1.3%; in experiment [4] it was 29%.

Turning to `O=C(c1ccc(OCCN2CCCCC2)cc1)c1c(-c2ccc(O)cc2)sc2cc(O)ccc12`, the Activity was -7.2% in [1] and 4.7% in [3]. Also, the results for the inhibition in experiment [2] and in [4] were 97% and 88%, respectively.

Regarding `CC/C=C\C/C=C\C/C=C\CCCCCCCC(=O)O` [LINOLENIC ACID], the Ki in experiment [9] worked out at 4 µM. In addition, in [10], the inhibition turned out to be 100%.

Regarding `CC(C)C(=O)Nc1ccc([N+](=O)[O-])c(C(F)(F)F)c1`, the inhibition in experiment [10] is 100%.

Consider `CCn1cc(C(=O)O)c(=O)c2ccc(C)nc21`, for which the inhibition in experiment [10] came to 34%.

For the compound `Oc1ccc(OCc2ccccc2)cc1`, the inhibition in experiment [10] stood at 86%.

As for `O=C1CN(/N=C/c2ccc([N+](=O)[O-])o2)C(=O)N1`, the inhibition in [10] was 66%.

Consider `Cc1nc(Nc2ncc(C(=O)Nc3c(C)cccc3Cl)s2)cc(N2CCN(CCO)CC2)n1` [DASATINIB], for which the Ki in experiment [11] was 715 µM. Moreover, the inhibition entry in experiment [11] was “Dose-dependent effect”; in [12], 46%.

Take `CC1(C)NC(=O)N(c2ccc([N+](=O)[O-])c(C(F)(F)F)c2)C1=O`: the inhibition in [10] was found to be 99%.

For the compound `CCC[C@@]1(CCc2ccccc2)CC(O)=C([C@H](CC)c2cccc(NS(=O)(=O)c3ccc(C(F)(F)F)cn3)c2)C(=O)O1`, the inhibition in [13] is 31%.

With `O=[N+]([O-])c1ccc(O)c2ncccc12` [NITROXOLINE], in experiment [14], the Ki was determined as 1 µM. Moreover, the inhibition in experiment [10] came out at 97%.

As to `CO[C@@H]1[C@@H](OC(N)=O)[C@@H](O)[C@H](Oc2ccc3c(O)c(NC(=O)c4ccc(O)c(CC=C(C)C)c4)c(=O)oc3c2C)OC1(C)C` [NOVOBIOCIN], in experiment [11], the Ki was 167 µM and the inhibition entry was “Dose-dependent effect”. Moreover, in [12], the inhibition was found to be 75%.

Turning to `CC(N)C12CC3CC(CC(C3)C1)C2` (stereo not given), the Activity in experiment [1] is -0.8%; in experiment [3], 3.6%. The inhibition in experiment [2] was -0.4%; in experiment [4], 41%.

In the case of `CN(C)CCCN1c2ccccc2CCc2ccc(Cl)cc21`, the Activity in experiment [1] was -4.5%; in experiment [3] it was 13%. Also, the inhibition is 99% in [2] and 92% in experiment [4].

As for `COc1cc2nc(N3CCN(C(=O)C4COc5ccccc5O4)CC3)nc(N)c2cc1OC` (stereo not given), the Activity in [1] is -4.7%; in experiment [3], 2.4%. Also, the inhibition in experiment [2] came to 102%.

Consider `CCCc1nc2c(C)cc(-c3nc4ccccc4n3C)cc2n1Cc1ccc(-c2ccccc2C(=O)O)cc1`, for which, in experiment [11], the Ki amounted to 6 µM and the inhibition result was “Dose-dependent effect”. In addition, in experiment [12], the inhibition is 97%.

Consider `CN(C)CC/C=C1/c2ccccc2COc2ccc(CC(=O)O)cc21`, for which the Activity in experiment [1] was -1.7%; in [3], -0.14%. Also, the figures for the inhibition in experiment [2] and in [4] were 20% and 52%, respectively.

Consider `O=C1c2c(O)ccc(O)c2C(=O)c2c(NCCNCCO)ccc(NCCNCCO)c21`, for which the values for the Activity in [1] and in [3] were 66% and -0.4%, respectively. In addition, the inhibition in experiment [2] worked out at 29%; in experiment [4] it was 81%.

Consider `C#C[C@]1(O)CC[C@H]2[C@@H]3CCC4=CCCC[C@@H]4[C@H]3C(=C)C[C@@]21CC`, for which the Activity in experiment [1] amounted to 2.8%; in [3] it was 7.1%. Also, the inhibition worked out at 79% in experiment [2] and 88% in [4].

For `CN(C)CCC=C1c2ccccc2C=Cc2ccccc21`, the figures for the Activity in experiment [1] and in [3] were -4.7% and 1%, respectively. Besides, the inhibition in experiment [2] turned out to be 98%; in experiment [4] it was 95%.

With `NC(=O)N/N=C/c1ccc([N+](=O)[O-])o1`, the inhibition in experiment [10] turned out to be 91%.

Regarding `O[C@@H](c1cc(C(F)(F)F)nc2c(C(F)(F)F)cccc12)[C@H]1CCCCN1` (relative stereo), the Activity in [1] was 0.6%; in [3], 45%. The inhibition came to 82% in experiment [2] and 90% in experiment [4].

With `Nc1ccc(/N=N/c2ccccc2)c(N)n1`, in experiment [10], the inhibition came out at 23%.

Consider `O=C(O)[C@@H]1CCCN1` [PROLINE], for which, in experiment [11], the Ki turned out to be 86 µM and the inhibition entry is “Dose-dependent effect”. The inhibition in experiment [12] came out at 93%.

Turning to `NS(=O)(=O)c1cc(C(=O)O)c(NCc2ccco2)cc1Cl`, the inhibition in experiment [10] amounted to 36%.

In the case of `Cc1c(O)cccc1C(=O)N[C@@H](CSc1ccccc1)[C@H](O)CN1C[C@H]2CCCC[C@H]2C[C@H]1C(=O)NC(C)(C)C`, in experiment [12], the inhibition worked out at 48%.

With `C[C@H](CS)C(=O)N1CCC[C@H]1C(=O)O` [CAPTOPRIL], the Ki in experiment [9] is 17 µM; in [14] it was 12 µM. In addition, the inhibition in [10] was determined as 48%.

With `CC[C@H]1OC(=O)[C@H](C)[C@@H](O[C@H]2C[C@@](C)(OC)[C@@H](O)[C@H](C)O2)[C@H](C)[C@@H](O[C@@H]2O[C@H](C)C[C@H](N(C)C)[C@H]2O)[C@](C)(O)C[C@@H](C)CN(C)[C@H](C)[C@@H](O)[C@]1(C)O`, the inhibition in [10] turned out to be 68%.

As to `NC1=NCC2c3ccccc3Cc3ccccc3N12` (stereo not given), the Activity in experiment [1] was -1%; in experiment [3], -0.33%. Also, the inhibition in [2] is 96%; in experiment [4] it was 5.5%.

Turning to `CC(CN1c2ccccc2Sc2ccccc21)N(C)C` (stereo not given), the Activity is -7.4% in experiment [1] and 3.5% in [3]. The inhibition in experiment [2] was 84%; in experiment [4], 95%.

Take `Nc1nc2[nH]cnc2c(=S)[nH]1`: the Activity in experiment [1] came out at 0.2%; in experiment [3], 0.61%. Besides, the inhibition was found to be 2.3% in experiment [2] and 21% in [4].

Regarding `O=C(O)CCCCC1CCSS1` (stereo not given), in experiment [10], the inhibition worked out at 95%.

(Values after ChEMBL document CHEMBL3085742, “Experimental confirmation of new drug-target interactions predicted by Drug Profile Matching” (J Med Chem, 2013).)
